Measured values taken from ChEMBL document CHEMBL3784933, “Synthesis and antitumor evaluation of trimethoxyanilides based on 4(3H)-quinazolinone scaffolds” (2016).

Assays:
Format in all cases: functional
[1] = Cytotoxicity against human SF539 cells assessed as growth inhibition at 10 uM after 48 hrs by SRB assay; settings: SF-539, 48 h, read-out: GI
[2] = Cytotoxicity against human PC3 cells assessed as growth inhibition at 10 uM after 48 hrs by SRB assay; settings: PC-3, 48 h, read-out: GI
[3] = system: SN12C; test: Cytotoxicity against human SN12C cells assessed as growth inhibition at 10 uM after 48 hrs by SRB assay; settings: read-out: GI
[4] = Cytotoxicity against human MOLT4 cells assessed as growth inhibition at 10 uM after 48 hrs by SRB assay; settings: MOLT-4, 48 h, read-out: GI
[5] = Cytotoxicity against human UO31 cells assessed as growth inhibition at 10 uM after 48 hrs by SRB assay; settings: UO-31, 48 h, read-out: GI
[6] = system: SK-MEL-5; test: Cytotoxicity against human SK-MEL-5 cells assessed as growth inhibition at 10 uM after 48 hrs by SRB assay; settings: SK-MEL-5, 48 h, read-out: GI
[7] = system: NCI-H226; test: Cytotoxicity against human NCI-H226 cells assessed as growth inhibition at 10 uM after 48 hrs by SRB assay; settings: NCI-H226, 48 h, read-out: GI
[8] = system: ACHN; test: Cytotoxicity against human ACHN cells assessed as growth inhibition at 10 uM after 48 hrs by SRB assay; settings: read-out: GI
[9] = system: A498; test: Cytotoxicity against human A498 cells assessed as growth inhibition at 10 uM after 48 hrs by SRB assay; settings: A498, 48 h, read-out: GI
[10] = system: MCF7; test: Cytotoxicity against human MCF7 cells assessed as growth inhibition at 10 uM after 48 hrs by SRB assay; settings: MCF7, 48 h, read-out: GI
[11] = Cytotoxicity against human BT549 cells assessed as growth inhibition at 10 uM after 48 hrs by SRB assay; settings: BT-549, 48 h, read-out: GI
[12] = system: 786-0; test: Cytotoxicity against human 786-0 cells assessed as growth inhibition at 10 uM after 48 hrs by SRB assay; settings: 786-0, 48 h, read-out: GI
[13] = system: MDA-MB-231; test: Cytotoxicity against human MDA-MB-231 cells assessed as growth inhibition at 10 uM after 48 hrs by SRB assay; settings: MDA-MB-231, 48 h, read-out: GI
[14] = Cytotoxicity against human HCT15 cells assessed as growth inhibition at 10 uM after 48 hrs by SRB assay; settings: HCT-15, 48 h, read-out: GI
[15] = Cytotoxicity against human NCI-H322 cells assessed as growth inhibition at 10 uM after 48 hrs by SRB assay; settings: NCI-H322, 48 h, read-out: GI
[16] = Cytotoxicity against human HCT116 cells assessed as growth inhibition at 10 uM after 48 hrs by SRB assay; settings: HCT-116, 48 h, read-out: GI
[17] = Cytotoxicity against human UACC257 cells assessed as growth inhibition at 10 uM after 48 hrs by SRB assay; settings: UACC-257, 48 h, read-out: GI
[18] = system: T47D; test: Cytotoxicity against human T47D cells assessed as growth inhibition at 10 uM after 48 hrs by SRB assay; settings: read-out: GI
[19] = system: A549; test: Cytotoxicity against human A549 cells assessed as growth inhibition at 10 uM after 48 hrs by SRB assay; settings: A549, 48 h, read-out: GI
[20] = Cytotoxicity against human SNB19 cells assessed as growth inhibition at 10 uM after 48 hrs by SRB assay; settings: SNB-19, 48 h, read-out: GI
[21] = system: MDA-MB-468; test: Cytotoxicity against human MDA-MB-468 cells assessed as growth inhibition at 10 uM after 48 hrs by SRB assay; settings: MDA-MB-468, 48 h, read-out: GI
[22] = Cytotoxicity against human Hs 578T cells assessed as growth inhibition at 10 uM after 48 hrs by SRB assay; settings: read-out: GI
[23] = Cytotoxicity against human SF268 cells assessed as growth inhibition at 10 uM after 48 hrs by SRB assay; settings: SF-268, 48 h, read-out: GI
[24] = system: SR; test: Cytotoxicity against human SR cells assessed as growth inhibition at 10 uM after 48 hrs by SRB assay; settings: read-out: GI
[25] = Cytotoxicity against human RPMI8226 cells assessed as growth inhibition at 10 uM after 48 hrs by SRB assay; settings: RPMI-8226, 48 h, read-out: GI
[26] = Cytotoxicity against human Caki1 cells assessed as growth inhibition at 10 uM after 48 hrs by SRB assay; settings: CAKI-1, 48 h, read-out: GI
[27] = system: K562; test: Cytotoxicity against human K562 cells assessed as growth inhibition at 10 uM after 48 hrs by SRB assay; settings: K562, 48 h, read-out: GI
[28] = Cytotoxicity against human LOXIMVI cells assessed as growth inhibition at 10 uM after 48 hrs by SRB assay; settings: LOX IMVI, read-out: GI
[29] = Cytotoxicity against human RXF393 cells assessed as growth inhibition at 10 uM after 48 hrs by SRB assay; settings: RXF 393, 48 h, read-out: GI
[30] = system: U-251; test: Cytotoxicity against human U251 cells assessed as growth inhibition at 10 uM after 48 hrs by SRB assay; settings: U-251, 48 h, read-out: GI
[31] = system: CCRF-CEM; test: Cytotoxicity against human CCRF-CEM cells assessed as growth inhibition at 10 uM after 48 hrs by SRB assay; settings: read-out: GI
[32] = Cytotoxicity against human SNB75 cells assessed as growth inhibition at 10 uM after 48 hrs by SRB assay; settings: SNB-75, 48 h, read-out: GI
[33] = Cytotoxicity against human UACC62 cells assessed as growth inhibition at 10 uM after 48 hrs by SRB assay; settings: UACC-62, 48 h, read-out: GI
[34] = Cytotoxicity against human SF295 cells assessed as growth inhibition at 10 uM after 48 hrs by SRB assay; settings: SF-295, 48 h, read-out: GI
[35] = system: NCI-H522; test: Cytotoxicity against human NCI-H522 cells assessed as growth inhibition at 10 uM after 48 hrs by SRB assay; settings: NCI-H522, 48 h, read-out: GI
[36] = Cytotoxicity against human HOP62 cells assessed as growth inhibition at 10 uM after 48 hrs by SRB assay; settings: HOP-62, 48 h, read-out: GI
[37] = system: Malme-3M; test: Cytotoxicity against human MALME-3M cells assessed as growth inhibition at 10 uM after 48 hrs by SRB assay; settings: read-out: GI
[38] = system: EKVX; test: Cytotoxicity against human EKVX cells assessed as growth inhibition at 10 uM after 48 hrs by SRB assay; settings: read-out: GI
[39] = Cytotoxicity against human OVCAR4 cells assessed as growth inhibition at 10 uM after 48 hrs by SRB assay; settings: OVCAR-4, 48 h, read-out: GI
[40] = Cytotoxicity against human HOP92 cells assessed as growth inhibition at 10 uM after 48 hrs by SRB assay; settings: HOP-92, 48 h, read-out: GI
[41] = Cytotoxicity against human NCI-ADR-RES cells assessed as growth inhibition at 10 uM after 48 hrs by SRB assay; settings: read-out: GI
[42] = system: NCI-H23; test: Cytotoxicity against human NCI-H23 cells assessed as growth inhibition at 10 uM after 48 hrs by SRB assay; settings: NCI-H23, 48 h, read-out: GI

| SMILES | inhibition of growth at 10 µM [2] [%] | inhibition of growth at 10 µM [4] [%] | inhibition of growth at 10 µM [5] [%] | inhibition of growth at 10 µM [6] [%] | inhibition of growth at 10 µM [8] [%] | inhibition of growth at 10 µM [9] [%] | inhibition of growth at 10 µM [13] [%] | inhibition of growth at 10 µM [18] [%] | inhibition of growth at 10 µM [19] [%] | inhibition of growth at 10 µM [22] [%] | inhibition of growth at 10 µM [24] [%] | inhibition of growth at 10 µM [25] [%] | inhibition of growth at 10 µM [26] [%] | inhibition of growth at 10 µM [27] [%] | inhibition of growth at 10 µM [28] [%] | inhibition of growth at 10 µM [31] [%] | inhibition of growth at 10 µM [32] [%] | inhibition of growth at 10 µM [33] [%] | inhibition of growth at 10 µM [35] [%] | inhibition of growth at 10 µM [39] [%] | further results |
| --- | --- | --- | --- | --- | --- | --- | --- | --- | --- | --- | --- | --- | --- | --- | --- | --- | --- | --- | --- | --- | --- |
| COc1cc(NC(=O)CCSc2nc3ccc(Cl)cc3c(=O)n2-c2ccc(F)cc2)cc(OC)c1OC | 51 | 28 | 51 | 20 | 21 | 88 | 42 | 27 | 28 | 34 | 23 | 47 | 34 | 22 | 24 | 24 | 59 | 22 | 55 | – | inhibition of growth at 10 µM [1]: 10%; inhibition of growth at 10 µM [3]: 18%; inhibition of growth at 10 µM [7]: 18%; inhibition of growth at 10 µM [10]: 21%; inhibition of growth at 10 µM [11]: 12%; inhibition of growth at 10 µM [12]: 19%; inhibition of growth at 10 µM [14]: 16%; inhibition of growth at 10 µM [15]: 16%; inhibition of growth at 10 µM [16]: 13%; inhibition of growth at 10 µM [17]: 25%; inhibition of growth at 10 µM [20]: 15%; inhibition of growth at 10 µM [21]: 17%; inhibition of growth at 10 µM [23]: 19%; inhibition of growth at 10 µM [29]: 25%; inhibition of growth at 10 µM [30]: 16%; inhibition of growth at 10 µM [34]: 30% |
| COc1cc2nc(SCC(=O)Nc3cc(OC)c(OC)c(OC)c3)n(-c3ccc(F)cc3)c(=O)c2cc1OC | – | – | 38 | – | – | – | – | 20 | – | – | – | – | – | – | 14 | 15 | – | 18 | 15 | – | – |
| COc1cc(NC(=O)CSc2nc3ccccc3c(=O)n2-c2ccccc2)cc(OC)c1OC | 15 | – | 48 | 16 | 11 | 54 | 23 | 18 | – | 14 | – | – | 20 | – | – | 22 | 27 | 19 | 11 | 12 | inhibition of growth at 10 µM [7]: 23%; inhibition of growth at 10 µM [36]: 12%; inhibition of growth at 10 µM [37]: 11%; inhibition of growth at 10 µM [38]: 24%; inhibition of growth at 10 µM [29]: 12% |
| COc1cc(NC(=O)CCSc2nc3ccccc3c(=O)n2-c2ccccc2)cc(OC)c1OC | 39 | 15 | 44 | – | 18 | 46 | 41 | 23 | 15 | – | 17 | 36 | 22 | 31 | 10 | 19 | – | 17 | 49 | 24 | inhibition of growth at 10 µM [3]: 18%; inhibition of growth at 10 µM [10]: 16%; inhibition of growth at 10 µM [30]: 10%; inhibition of growth at 10 µM [34]: 13% |
| COc1cc2nc(SCCC(=O)Nc3cc(OC)c(OC)c(OC)c3)n(-c3ccc(F)cc3)c(=O)c2cc1OC | – | – | – | – | – | 22 | – | – | – | – | – | – | – | 11 | – | – | – | – | – | – | inhibition of growth at 10 µM [40]: 13%; inhibition of growth at 10 µM [36]: 11%; inhibition of growth at 10 µM [30]: 12% |
| COc1cc(NC(=O)CSc2nc3ccc(Cl)cc3c(=O)n2-c2ccccc2)cc(OC)c1OC | 20 | – | 50 | 17 | – | 54 | 17 | 15 | 12 | 19 | – | – | 17 | – | 10 | 30 | 29 | 25 | 16 | 15 | inhibition of growth at 10 µM [11]: 22%; inhibition of growth at 10 µM [36]: 15%; inhibition of growth at 10 µM [37]: 12%; inhibition of growth at 10 µM [41]: 10%; inhibition of growth at 10 µM [23]: 10%; inhibition of growth at 10 µM [38]: 24%; inhibition of growth at 10 µM [34]: 13% |
| COc1cc(NC(=O)CSc2nc3ccccc3c(=O)n2-c2ccc(F)cc2)cc(OC)c1OC | – | 18 | 42 | 11 | – | 72 | 24 | 23 | – | 10 | – | 14 | 12 | 14 | 10 | – | 10 | 19 | 19 | – | inhibition of growth at 10 µM [40]: 43%; inhibition of growth at 10 µM [42]: 10%; inhibition of growth at 10 µM [23]: 10%; inhibition of growth at 10 µM [38]: 13% |
| COc1cc(NC(=O)CCSc2nc3ccc(Cl)cc3c(=O)n2-c2ccccc2)cc(OC)c1OC | – | – | – | – | – | 22 | 10 | – | – | – | 18 | – | – | – | – | – | 21 | – | – | 15 | – |
| COc1cc2nc(SCCC(=O)Nc3cc(OC)c(OC)c(OC)c3)n(-c3ccccc3)c(=O)c2cc1OC | 18 | – | 25 | – | – | – | 14 | 14 | 14 | – | 13 | 25 | 12 | – | – | – | 39 | – | 15 | – | – |
